Data taken from patent US8247211B2, “Glycopeptide antibiotics” (American Cyanamid Company, priority 2001, dated 2012).
Values after ≈ are worked out from the molar mass of the structure shown.

What was measured:
Assay in all cases: In vitro antibacterial evaluation: minimum inhibitory concentration (MIC), broth dilution method
Type in all cases: cell-based
Streptococcus sp. = conditions: 18 hours at 35° C.
How it was run: (§1)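 Test strains, among them recent clinical isolates carrying methicillin, penicillin and/or vancomycin resistance, were inoculated at 5×10^5 CFU/mL. A broth dilution series spanning 64-0.06 μg/mL in Muller-Hinton II […] (NCCLS M7-A2) defined the MIC as the lowest growth-inhibiting concentration.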

Staphylococcus sp. = tested on: Staphylococcus sp.
How it was run: as §1

Escherichia coli = conditions: 18 hours at 35° C.
How it was run: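 Using Muller-Hinton II […] and an inoculum of 5×10^5 CFU/mL, antibiotic dilutions from 64 down to 0.06 μg/mL were tested following NCCLS M7-A2. The MIC is the lowest concentration inhibiting growth, including in methicillin-, penicillin- or vancomycin-resistant clinical isolates.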

Enterococcus sp. = conditions: 18 hours at 35° C.
How it was run: as §1

[1] = broth dilution, inoculum 5×10^5 CFU/mL

CC(c1ccccc1)C1NC(=O)CNC(=O)C(CO)NC(=O)C(C(O)C2CNC(=N)N2C2OC(CO)C(O)C(O)C2O)NC(=O)C(C(O)C2CNC(=N)N2)NC(=O)C(Cc2ccc(OC3OC(CO)C(OC4OC5COC6(CCCCC6(C)C)OC5C(O)C4O)C(O)C3O)cc2)NC1=O (stereo not drawn) [Example 205, Cyclo[glycyl-β-methylphenylalanyl-O-[4-O-[4,6-O-(2,2-dimethylcyclohexylidene)hexopyranosyl]hexopyranosyl]tyrosyl-3-(2-iminoimidazolidin-4-yl)seryl-3-(3-hexopyranosyl-2-iminoimidazolidin-4-yl)serylseryl]]
MIC Streptococcus agalactiae (GC 4564) (Streptococcus sp.; Streptococcus agalactiae (GC 4564)): <0.12 mg/L | MIC Streptococcus pneumoniae (ATCC 6301) (Streptococcus sp.; Streptococcus pneumoniae (ATCC 6301)): <0.12 mg/L | MIC Streptococcus pneumoniae (GC 1894) (Streptococcus sp.; Streptococcus pneumoniae (GC 1894)): <0.12 mg/L | MIC Streptococcus pneumoniae (GC 4565) (Streptococcus sp.; Streptococcus pneumoniae (GC 4565)): <0.12 mg/L | MIC Streptococcus pyogenes (GC 4563) (Streptococcus sp.; Streptococcus pyogenes (GC 4563)): <0.12 mg/L | MIC Streptococcus agalactiae (GC 4564) (Streptococcus sp.; [1]): <0.12 mg/L | MIC Streptococcus pneumoniae (ATCC 6301) (Streptococcus sp.; [1]): <0.12 mg/L | MIC Streptococcus pneumoniae (GC 1894) (Streptococcus sp.; [1]): <0.12 mg/L | MIC Streptococcus pneumoniae (GC 4565) (Streptococcus sp.; [1]): <0.12 mg/L | MIC Streptococcus pyogenes (GC 4563) (Streptococcus sp.; [1]): <0.12 mg/L | MIC Staphylococcus aureus (ATCC 29213) (Staphylococcus sp.; strain ATCC 29213): 2 mg/L (≈ 1.43 µM) | MIC Staphylococcus aureus (GC 1131) (Staphylococcus sp.; strain GC 1131): 2 mg/L (≈ 1.43 µM) | MIC Staphylococcus aureus (GC 3051) (Staphylococcus sp.; strain GC 3051): 2 mg/L (≈ 1.43 µM) | MIC Staphylococcus aureus (GC 3053) (Staphylococcus sp.; strain GC 3053): 2 mg/L (≈ 1.43 µM) | MIC Staphylococcus aureus (GC 4541) (Staphylococcus sp.; strain GC 4541): 2 mg/L (≈ 1.43 µM) | MIC Staphylococcus aureus (GC 4542) (Staphylococcus sp.; strain GC 4542): 2 mg/L (≈ 1.43 µM) | MIC Staphylococcus aureus-SMITH (GC 4543) (Staphylococcus sp.; strain GC 4543): 2 mg/L (≈ 1.43 µM) | MIC Staphylococcus aureus (GC 4544) (Staphylococcus sp.; strain GC 4544): 2 mg/L (≈ 1.43 µM) | MIC Staphylococcus aureus (GC 4545) (Staphylococcus sp.; strain GC 4545): 2 mg/L (≈ 1.43 µM) | MIC Staphylococcus haemolyticus (GC 4546) (Staphylococcus sp.; strain GC 4546): 2 mg/L (≈ 1.43 µM) | MIC Coagulase Negative Staphylococcus (GC 4547) (Staphylococcus sp.; strain GC 4547): 2 mg/L (≈ 1.43 µM) | MIC Coagulase Negative Staphylococcus (GC 4548) (Staphylococcus sp.; strain GC 4548): 1 mg/L (≈ 0.713 µM) | MIC Coagulase Negative Staphylococcus (GC 4549) (Staphylococcus sp.; strain GC 4549): 1 mg/L (≈ 0.713 µM) | MIC Coagulase Negative Staphylococcus (GC 4551) (Staphylococcus sp.; strain GC 4551): 2 mg/L (≈ 1.43 µM) | MIC Escherichia coli (ATCC 25922) (Escherichia coli; Escherichia coli (ATCC 25922)): 64 mg/L (≈ 45.6 µM) | MIC Escherichia coli (GC 4560) (Escherichia coli; Escherichia coli (GC 4560)): 1 mg/L (≈ 0.713 µM) | MIC Enterococcus avium (GC 4558) (Enterococcus sp.; Enterococcus avium (GC 4558)): 4 mg/L (≈ 2.85 µM) | MIC Enterococcus faecalis (ATCC 29212) (Enterococcus sp.; Enterococcus faecalis (ATCC 29212)): 2 mg/L (≈ 1.43 µM) | MIC Enterococcus faecalis (GC 2242) (Enterococcus sp.; Enterococcus faecalis (GC 2242)): 4 mg/L (≈ 2.85 µM) | MIC Enterococcus faecalis (GC 2691) (Enterococcus sp.; Enterococcus faecalis (GC 2691)): 4 mg/L (≈ 2.85 µM) | MIC Enterococcus faecalis (GC 3059) (Enterococcus sp.; Enterococcus faecalis (GC 3059)): 2 mg/L (≈ 1.43 µM) | MIC Enterococcus faecalis (GC 4552) (Enterococcus sp.; Enterococcus faecalis (GC 4552)): 4 mg/L (≈ 2.85 µM) | MIC Enterococcus faecalis (GC 4553) (Enterococcus sp.; Enterococcus faecalis (GC 4553)): 2 mg/L (≈ 1.43 µM) | MIC Enterococcus faecalis (GC 4554) (Enterococcus sp.; Enterococcus faecalis (GC 4554)): 4 mg/L (≈ 2.85 µM) | MIC Enterococcus faecalis (GC 6189) (Enterococcus sp.; Enterococcus faecalis (GC 6189)): 2 mg/L (≈ 1.43 µM) | MIC Enterococcus faecium (GC 2243) (Enterococcus sp.; Enterococcus faecium (GC 2243)): 2 mg/L (≈ 1.43 µM) | MIC Enterococcus faecium (GC 4556) (Enterococcus sp.; Enterococcus faecium (GC 4556)): 2 mg/L (≈ 1.43 µM) | MIC Enterococcus faecium (GC 4557) (Enterococcus sp.; Enterococcus faecium (GC 4557)): 4 mg/L (≈ 2.85 µM) | MIC Enterococcus avium (GC 4558) (Enterococcus sp.; [1]): 4 mg/L (≈ 2.85 µM) | MIC Enterococcus faecalis (ATCC 29212) (Enterococcus sp.; [1]): 2 mg/L (≈ 1.43 µM) | MIC Enterococcus faecalis (GC 2242) (Enterococcus sp.; [1]): 4 mg/L (≈ 2.85 µM) | MIC Enterococcus faecalis (GC 2691) (Enterococcus sp.; [1]): 4 mg/L (≈ 2.85 µM) | MIC Enterococcus faecalis (GC 3059) (Enterococcus sp.; [1]): 2 mg/L (≈ 1.43 µM) | MIC Enterococcus faecalis (GC 4552) (Enterococcus sp.; [1]): 4 mg/L (≈ 2.85 µM) | MIC Enterococcus faecalis (GC 4553) (Enterococcus sp.; [1]): 2 mg/L (≈ 1.43 µM) | MIC Enterococcus faecalis (GC 4554) (Enterococcus sp.; [1]): 4 mg/L (≈ 2.85 µM) | MIC Enterococcus faecalis (GC 6189) (Enterococcus sp.; [1]): 2 mg/L (≈ 1.43 µM) | MIC Enterococcus faecium (GC 2243) (Enterococcus sp.; [1]): 2 mg/L (≈ 1.43 µM) | MIC Enterococcus faecium (GC 4556) (Enterococcus sp.; [1]): 2 mg/L (≈ 1.43 µM) | MIC Enterococcus faecium (GC 4557) (Enterococcus sp.; [1]): 4 mg/L (≈ 2.85 µM)
